The text below walks through data of patent publication US20100173910A1, “TRIAMINOPYRIMIDINE CYCLOBUTENEDIONE DERIVATIVES USED AS PHOSPHATASE CDC25 INHIBITORS” (IPDRN PHSTMS D.S.S., priority 2007, published 2010).

A value given as a limit tells only on which side of the number the result lay.

Series [1] addresses T1, purified recombinant CDC25C enzyme (MBP-CDC25C protein) (Homo sapiens, UniProt P30307).
T1 construct: made in house
T1 sequence (P30307 1-473): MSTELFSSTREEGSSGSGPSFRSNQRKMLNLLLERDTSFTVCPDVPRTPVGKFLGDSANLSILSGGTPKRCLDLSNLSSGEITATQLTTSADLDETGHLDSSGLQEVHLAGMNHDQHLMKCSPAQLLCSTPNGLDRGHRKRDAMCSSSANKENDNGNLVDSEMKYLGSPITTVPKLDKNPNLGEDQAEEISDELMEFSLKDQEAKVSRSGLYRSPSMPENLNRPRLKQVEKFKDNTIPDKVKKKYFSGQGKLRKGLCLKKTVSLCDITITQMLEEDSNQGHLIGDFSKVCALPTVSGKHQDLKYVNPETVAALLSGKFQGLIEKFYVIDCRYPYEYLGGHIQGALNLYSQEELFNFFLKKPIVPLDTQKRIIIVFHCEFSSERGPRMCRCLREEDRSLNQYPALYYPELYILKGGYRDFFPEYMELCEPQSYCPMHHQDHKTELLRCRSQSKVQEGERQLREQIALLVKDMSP
As to the kind of experiment: Phosphatase activity of the purified recombinant CDC25C enzyme (OMFP dephosphorylation, fluorescence). The following applies: OMFP 500 μM, 4 hours at 30° C., three independent experiments; nested upper bounds; read-out: IC50 for the phosphatase activity of the purified recombinant CDC25-C enzyme. Format: biochemical. Here is the method: i) Determination of the Phosphatase Activity of the Purified Recombinant CDC25C Enzyme:
The phosphatase activity of the MBP-CDC25C protein is evaluated through its dephosphorylation of 3-O-methylfluorescein-phosphate (OMFP) to form 3-O-methylfluorescein (OMF), determining the fluorescence of the reaction product at 475 nm. This assay can be used to identify inhibitors of the recombinant CDC25 enzyme. The preparation of the MBP-CDC25C fusion protein is described in the PCT patent application published under the number WO 01/44467.
The reaction is performed in 384-well plates in a final volume of 50 μl. The MBP-CDC25C protein (prepared as described hereinabove) is stored in the following elution buffer: 20 mM Tris-HCl pH 7.4; 250 mM NaCl; 1 mM EDTA; 1 mM dithiothreitol (DTT); 10 mM maltose. It is diluted to a concentration of 60 μM in the following reaction buffer: 50 mM Tris-HCl pH 8.2; 50 mM NaCl; 1 mM DTT; 20% glycerol. The background noise is determined using with the buffer without adding the enzyme. The products are tested at decreasing concentrations from 40 μM. The reaction is initiated by the addition of OMFP solution to a final concentration of 500 μM (prepared immediately before use from a 12.5 mM stock solution in 100% DMSO (Sigma #M2629)). After 4 hours at 30° C. in a disposable 384-well plate, the fluorescence measured at OD 475 nm is read on a Victor^2 plate reader (EGG-Wallac). The concentration that produces 50% inhibition of the enzyme reaction is calculated from three independent experiments. Only the values that fall within the linear part of the sigmoid curve are used for the linear regression analysis.

Series [2] concerns MIA PaCa-2 (human pancreatic carcinoma cells). Briefly: Anti-proliferative activity, MIA PaCa-2 cells (WST1 colorimetric test). Type of series: cell-based. The following applies: MIA PaCa-2, 96 h, 96 hours treatment, up to 10 μM, nested upper bounds, read-out: IC50 for proliferation of the MIA PaCa-2 cell lines. On the procedure:
(§1) ii) Characterisation of Anti-Proliferative Activity:
(§2) By way of an example, the effect of treating two human cell lines MIA PaCa-2 and DU 145 with the compounds of the examples described hereinbefore will be studied. The cell lines DU 145 (human prostate carcinoma cells) and MIA PaCa-2 (human pancreatic carcinoma cells) were obtained from the American Tissue Culture Collection (Rockville, Md., USA). A 96-well plate was inoculated on day 0 with cells in 80 μl of Dulbecco's modified Eagle's medium (Gibco-Brl, Cergy-Pontoise, France) with 10% heat-inactivated foetal calf serum (Gibco-Brl, Cergy-Pontoise, France), 50,000 units/l of penicillin and 50 mg/l of streptomycin (Gibco-Brl, Cergy-Pontoise, France) and 2 mM of glutamine (Gibco-Brl, Cergy-Pontoise, France). The cells were treated on day 1 for 96 hours with increasing concentrations of each test compound up to 10 μM. At the end of this period, cell proliferation is quantified by means of a colorimetric test based on cleavage of the tetrazolium salt WST1 by the mitochondrial dehydrogenases in the viable cells, resulting in formation of formazan (Boehringer Mannheim, Meylan, France). These tests are performed in duplicate with 8 determinations per concentration tested. For each test compound, the values within the linear part of the sigmoid curve were subjected to linear regression analysis and used to estimate the IC50 inhibitory concentration. The products are solubilised in dimethylsulfoxide (DMSO) at a concentration of 10^−2 M and used in culture with a final DMSO concentration of 0.1%.

Series [3] concerns DU 145 (human prostate carcinoma cells). As to the kind of experiment: Anti-proliferative activity, DU 145 cells (WST1 colorimetric test). Type of series: cell-based. The following applies: DU-145, 96 h, 96 hours treatment, up to 10 μM, nested upper bounds, read-out: IC50 for proliferation of the DU 145 cell lines. On the procedure:
as §1, §2
A general note: Formazan colour is commonly taken as a measure of viable cells.

The term melting point denotes the temperature of the solid-liquid transition. `O=c1c(NCCNc2cc(N3CCCC3)nc(N3CCCC3)n2)c(NCc2ccc(Cl)cc2)c1=O` [Example 5, 3-[(4-chlorobenzyl)amino]-4-({2-[(2,6-dipyrrolidin-1-ylpyrimidin-4-yl)amino]ethyl}amino)cyclobut-3-ene-1,2-dione] displayed a melting point of 246 to 248 °C. Further, the IC50 in series [1] was at most 1 µM. Further, the IC50 in series [2] is at most 10 µM. The IC50 in series [3] is at most 10 µM.
As to `CN(CCNc1cc(N2CCCC2)nc(N2CCCC2)n1)CCNc1c(Nc2ccc(Cl)cc2)c(=O)c1=O` [Example 8, 3-[(4-chlorophenyl)amino]-4-({2-[{2-[(2,6-dipyrrolidin-1-ylpyrimidin-4-yl)amino]ethyl}(methyl)amino]ethyl}amino)cyclobut-3-ene-1,2-dione], the melting point lay in the range of 144 to 146 °C. Besides, the IC50 in series [1] was at most 5 µM. Further, in series [2], the IC50 was at most 10 µM. Further, in series [3], the IC50 was at most 10 µM.
`O=c1c(NCCNc2cc(N3CCCC3)nc(N3CCCC3)n2)c(Nc2ccc(Cl)c(C(F)(F)F)c2)c1=O` [Example 10, 3-{[4-chloro-3-(trifluoromethyl)phenyl]amino}-4-({2-[(2,6-dipyrrolidin-1-ylpyrimidin-4-yl)amino]ethyl}amino)cyclobut-3-ene-1,2-dione] displayed a melting point of 216 to 218 °C. Further, in series [1], the IC50 is at most 15 µM. Further, in series [2], the IC50 was at most 10 µM. Also, the IC50 in series [3] was at most 10 µM.
In the case of `O=c1c(NCCNc2cc(N3CCCC3)nc(N3CCCC3)n2)c(Nc2ccc(-c3ccccc3)cc2)c1=O` [Example 11, 3-(biphenyl-4-ylamino)-4-({2-[(2,6-dipyrrolidin-1-ylpyrimidin-4-yl)amino]ethyl}amino)cyclobut-3-ene-1,2-dione], the IC50 is at most 5 µM in series [1] and at most 10 µM in series [3].
`O=c1c(NCCNc2cc(N3CCCC3)nc(N3CCCC3)n2)c(Nc2cc(F)cc(F)c2)c1=O` [Example 15, 3-[(3,5-difluorophenyl)amino]-4-({2-[(2,6-dipyrrolidin-1-ylpyrimidin-4-yl)amino]ethyl}amino)cyclobut-3-ene-1,2-dione]: the melting point lay in the range of 192 to 194 °C. Moreover, in series [1], the IC50 is at most 1 µM. In series [3], the IC50 was at most 10 µM.
For the compound `O=c1c(NCCNc2cc(N3CCCC3)nc(N3CCCC3)n2)c(Nc2cccc(Cl)c2)c1=O` [Example 17, 3-[(3-chlorophenyl)amino]-4-({2-[(2,6-dipyrrolidin-1-ylpyrimidin-4-yl)amino]ethyl}amino)cyclobut-3-ene-1,2-dione], the melting point was 209 to 211 °C. Also, the IC50 in series [1] was at most 5 µM. Moreover, the IC50 in series [2] was at most 10 µM. In addition, the IC50 in series [3] is at most 10 µM.
Compound `COc1ccc(Nc2c(NCCNc3cc(N4CCCC4)nc(N4CCCC4)n3)c(=O)c2=O)cc1` [Example 18, 3-({2-[(2,6-dipyrrolidin-1-ylpyrimidin-4-yl)amino]ethyl}amino)-4-[(4-methoxyphenyl)amino]cyclobut-3-ene-1,2-dione] yielded a melting point of 235 to 237 °C. The IC50 in series [1] was at most 1 µM. Besides, the IC50 in series [2] was at most 10 µM. Moreover, the IC50 in series [3] was at most 10 µM.
In turn, `CC(=O)c1ccc(Nc2c(NCCNc3cc(N4CCCC4)nc(N4CCCC4)n3)c(=O)c2=O)cc1` [Example 19, 3-[(4-acetylphenyl)amino]-4-({2-[(2,6-dipyrrolidin-1-ylpyrimidin-4-yl)amino]ethyl}amino)cyclobut-3-ene-1,2-dione] gave a melting point of 186 to 188 °C. Moreover, in series [1], the IC50 was at most 1 µM. For the same compound, the IC50 in series [2] was at most 10 µM. Moreover, the IC50 in series [3] was at most 10 µM.
In turn, `COc1cccc(Nc2c(NCCNc3cc(N4CCCC4)nc(N4CCCC4)n3)c(=O)c2=O)c1` [Example 20, 3-({2-[(2,6-dipyrrolidin-1-ylpyrimidin-4-yl)amino]ethyl}amino)-4-[(3-methoxyphenyl)amino]cyclobut-3-ene-1,2-dione] displayed a melting point of 205 to 207 °C. Besides, the IC50 in series [1] was at most 5 µM. For the same compound, the IC50 in series [2] is at most 10 µM. For the same compound, the IC50 in series [3] is at most 10 µM.
In the case of `CN(Cc1ccc(Nc2c(NCCNc3cc(N4CCCC4)nc(N4CCCC4)n3)c(=O)c2=O)cc1)C(=O)OC(C)(C)C` [Example 21, tert-butyl (4-{[2-({2-[(2,6-dipyrrolidin-1-ylpyrimidin-4-yl)amino]ethyl}amino)-3,4-dioxocyclobut-1-en-1-yl]amino}benzyl)methylcarbamate], the IC50 was at most 1 µM in series [1], at most 10 µM in series [2] and at most 10 µM in series [3].
As for `O=c1c(NCCNc2cc(N3CCCC3)nc(N3CCCC3)n2)c(Nc2ccc(C3CCCCC3)cc2)c1=O` [Example 23, 3-[(4-cyclohexylphenyl)amino]-4-({2-[(2,6-dipyrrolidin-1-ylpyrimidin-4-yl)amino]ethyl}amino)cyclobut-3-ene-1,2-dione], the melting point is 218 to 220 °C. Further, the IC50 in series [1] is at most 5 µM. In addition, the IC50 in series [2] was at most 10 µM. For the same compound, the IC50 in series [3] was at most 10 µM.
For `CCCc1ccc(Nc2c(NCCNc3cc(N4CCCC4)nc(N4CCCC4)n3)c(=O)c2=O)cc1` [Example 24, 3-({2-[(2,6-dipyrrolidin-1-ylpyrimidin-4-yl)amino]ethyl}amino)-4-[(4-propylphenyl)amino]cyclobut-3-ene-1,2-dione], the IC50 in series [1] was at most 1 µM; in series [2] it was at most 10 µM; in series [3], at most 10 µM.
Regarding `O=c1c(NCCNc2cc(N3CCCC3)nc(N3CCCC3)n2)c(Nc2ccc(C(F)(F)F)cc2)c1=O` [Example 32, 3-({2-[(2,6-dipyrrolidin-1-ylpyrimidin-4-yl)amino]ethyl}amino)-4-{[4-(trifluoromethyl)phenyl]amino}cyclobut-3-ene-1,2-dione], the melting point is over 250 °C. In addition, the IC50 in series [1] was at most 1 µM. The IC50 in series [3] is at most 10 µM.
As to `O=c1c(NCCNc2cc(N3CCCC3)nc(N3CCCC3)n2)c(Nc2ccc([N+](=O)[O-])cc2)c1=O` [Example 34, 3-({2-[(2,6-dipyrrolidin-1-ylpyrimidin-4-yl)amino]ethyl}amino)-4-[(4-nitrophenyl)amino]cyclobut-3-ene-1,2-dione], the IC50 in series [1] is at most 1 µM; in series [3], at most 10 µM.
Taken in the same sequence, the figures for `O=c1c(NCCNc2cc(N3CCCC3)nc(N3CCCC3)n2)c(Nc2ccc(Cl)c(F)c2)c1=O` [Example 36, 3-[(4-chloro-3-fluorophenyl)amino]-4-({2-[(2,6-dipyrrolidin-1-ylpyrimidin-4-yl)amino]ethyl}amino)cyclobut-3-ene-1,2-dione] were at most 1 µM and at most 10 µM.
